Experiments:
Test in all cases: KINOMEscan competition binding
Settings in all cases: compound 10.0 µM
[1] = test system: ABL1 (human), P00519 [M351T]
[2] = target: ABL2 (human) (UniProt P42684)
[3] = target: ANKK1 (human) (UniProt Q8NFD2)
[4] = target: CDC42BPA (human) (UniProt Q5VT25)
[5] = target: CDK16 (human) (UniProt Q00536)
[6] = target: CSNK1A1L (human) (UniProt Q8N752)
[7] = target: DCLK1 (human) (UniProt O15075)
[8] = target: EPHA8 (human) (UniProt P29322)
[9] = target: INSRR (human) (UniProt P14616)
[10] = test system: KIT (human), P10721 [V559D]
[11] = target: LATS1 (human) (UniProt O95835)
[12] = target: LIMK2 (human) (UniProt P53671)
Sequence of LIMK2 (human) (P53671 whole entry, looked up): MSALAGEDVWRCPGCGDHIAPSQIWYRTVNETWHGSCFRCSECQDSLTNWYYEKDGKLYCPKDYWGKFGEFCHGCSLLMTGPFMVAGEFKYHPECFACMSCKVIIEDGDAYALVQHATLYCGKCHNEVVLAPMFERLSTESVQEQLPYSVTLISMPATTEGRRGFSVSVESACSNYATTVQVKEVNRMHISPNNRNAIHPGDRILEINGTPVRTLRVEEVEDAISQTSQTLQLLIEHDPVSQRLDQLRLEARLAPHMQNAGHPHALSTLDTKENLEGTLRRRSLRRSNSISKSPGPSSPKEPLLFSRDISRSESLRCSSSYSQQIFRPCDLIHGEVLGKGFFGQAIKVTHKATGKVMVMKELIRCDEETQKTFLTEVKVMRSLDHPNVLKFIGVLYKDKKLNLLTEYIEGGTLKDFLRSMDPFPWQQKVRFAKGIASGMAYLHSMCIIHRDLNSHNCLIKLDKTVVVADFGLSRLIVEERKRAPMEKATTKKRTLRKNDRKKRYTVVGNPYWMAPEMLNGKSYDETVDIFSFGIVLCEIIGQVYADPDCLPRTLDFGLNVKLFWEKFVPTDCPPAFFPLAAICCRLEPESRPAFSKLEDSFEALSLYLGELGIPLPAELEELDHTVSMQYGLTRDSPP

[13] = target: MAP2K6 (human) (UniProt P52564)
[14] = target: MAP3K10 (human) (UniProt Q02779)
[15] = target: MAP3K9 (human) (UniProt P80192)
[16] = target: MAPK14 (human) (UniProt Q16539)
[17] = target: MAPK8 (human) (UniProt P45983)
[18] = target: MAPK9 (human) (UniProt P45984)
[19] = target: MKNK2 (human) (UniProt Q9HBH9)
Sequence of MKNK2 (human) (Q9HBH9 whole entry, looked up): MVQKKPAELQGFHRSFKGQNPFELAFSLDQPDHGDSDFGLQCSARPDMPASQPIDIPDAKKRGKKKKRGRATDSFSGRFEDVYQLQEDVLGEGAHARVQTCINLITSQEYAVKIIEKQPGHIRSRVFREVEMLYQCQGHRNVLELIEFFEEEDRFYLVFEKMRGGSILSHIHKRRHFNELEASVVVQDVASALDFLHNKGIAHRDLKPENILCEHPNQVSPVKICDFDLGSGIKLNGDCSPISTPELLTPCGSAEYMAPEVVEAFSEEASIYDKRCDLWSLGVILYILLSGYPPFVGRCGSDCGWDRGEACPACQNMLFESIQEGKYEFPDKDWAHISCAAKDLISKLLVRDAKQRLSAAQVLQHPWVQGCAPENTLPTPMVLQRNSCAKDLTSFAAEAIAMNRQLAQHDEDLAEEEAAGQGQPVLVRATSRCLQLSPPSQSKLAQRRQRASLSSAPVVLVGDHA

[20] = target: MYLK2 (human) (UniProt Q9H1R3)
[21] = target: MYO3B (human) (UniProt Q8WXR4)
Sequence of MYO3B (human) (Q8WXR4 whole entry, looked up): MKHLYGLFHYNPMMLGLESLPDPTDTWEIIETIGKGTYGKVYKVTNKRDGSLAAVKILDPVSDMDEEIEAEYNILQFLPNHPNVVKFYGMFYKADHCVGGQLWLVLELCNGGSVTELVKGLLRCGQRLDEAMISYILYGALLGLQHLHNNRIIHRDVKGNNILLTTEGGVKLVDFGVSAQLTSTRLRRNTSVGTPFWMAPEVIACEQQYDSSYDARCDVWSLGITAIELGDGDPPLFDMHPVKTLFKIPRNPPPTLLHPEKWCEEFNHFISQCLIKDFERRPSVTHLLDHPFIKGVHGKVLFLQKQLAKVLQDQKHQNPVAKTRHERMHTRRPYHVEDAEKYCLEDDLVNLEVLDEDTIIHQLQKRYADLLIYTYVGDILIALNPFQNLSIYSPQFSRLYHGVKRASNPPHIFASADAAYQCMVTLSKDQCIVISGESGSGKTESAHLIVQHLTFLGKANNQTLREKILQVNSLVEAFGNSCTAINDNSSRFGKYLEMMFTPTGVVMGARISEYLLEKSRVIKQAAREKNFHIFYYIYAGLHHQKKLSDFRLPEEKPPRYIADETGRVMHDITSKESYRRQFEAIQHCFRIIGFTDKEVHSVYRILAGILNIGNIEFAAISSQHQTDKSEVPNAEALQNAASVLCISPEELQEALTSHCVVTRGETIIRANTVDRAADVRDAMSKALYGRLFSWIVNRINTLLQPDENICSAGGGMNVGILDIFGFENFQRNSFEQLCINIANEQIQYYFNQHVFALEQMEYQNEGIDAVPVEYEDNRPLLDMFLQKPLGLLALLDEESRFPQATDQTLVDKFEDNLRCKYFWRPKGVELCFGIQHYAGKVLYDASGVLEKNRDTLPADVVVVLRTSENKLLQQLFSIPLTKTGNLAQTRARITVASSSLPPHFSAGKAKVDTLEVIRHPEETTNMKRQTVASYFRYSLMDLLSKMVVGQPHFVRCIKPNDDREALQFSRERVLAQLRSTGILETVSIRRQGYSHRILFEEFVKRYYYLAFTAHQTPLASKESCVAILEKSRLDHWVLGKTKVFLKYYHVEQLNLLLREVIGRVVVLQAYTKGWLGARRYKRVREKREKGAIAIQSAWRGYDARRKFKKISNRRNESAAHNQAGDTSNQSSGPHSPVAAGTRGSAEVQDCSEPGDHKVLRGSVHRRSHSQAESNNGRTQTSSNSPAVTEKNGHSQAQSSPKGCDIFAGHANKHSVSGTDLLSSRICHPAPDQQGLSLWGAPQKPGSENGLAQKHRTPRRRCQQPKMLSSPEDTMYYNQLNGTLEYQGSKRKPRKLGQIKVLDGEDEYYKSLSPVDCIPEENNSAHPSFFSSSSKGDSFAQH

[22] = target: NEK7 (human) (UniProt Q8TDX7)
[23] = target: NTRK2 (human) (UniProt Q16620)
Sequence of NTRK2 (human) (Q16620 whole entry, looked up): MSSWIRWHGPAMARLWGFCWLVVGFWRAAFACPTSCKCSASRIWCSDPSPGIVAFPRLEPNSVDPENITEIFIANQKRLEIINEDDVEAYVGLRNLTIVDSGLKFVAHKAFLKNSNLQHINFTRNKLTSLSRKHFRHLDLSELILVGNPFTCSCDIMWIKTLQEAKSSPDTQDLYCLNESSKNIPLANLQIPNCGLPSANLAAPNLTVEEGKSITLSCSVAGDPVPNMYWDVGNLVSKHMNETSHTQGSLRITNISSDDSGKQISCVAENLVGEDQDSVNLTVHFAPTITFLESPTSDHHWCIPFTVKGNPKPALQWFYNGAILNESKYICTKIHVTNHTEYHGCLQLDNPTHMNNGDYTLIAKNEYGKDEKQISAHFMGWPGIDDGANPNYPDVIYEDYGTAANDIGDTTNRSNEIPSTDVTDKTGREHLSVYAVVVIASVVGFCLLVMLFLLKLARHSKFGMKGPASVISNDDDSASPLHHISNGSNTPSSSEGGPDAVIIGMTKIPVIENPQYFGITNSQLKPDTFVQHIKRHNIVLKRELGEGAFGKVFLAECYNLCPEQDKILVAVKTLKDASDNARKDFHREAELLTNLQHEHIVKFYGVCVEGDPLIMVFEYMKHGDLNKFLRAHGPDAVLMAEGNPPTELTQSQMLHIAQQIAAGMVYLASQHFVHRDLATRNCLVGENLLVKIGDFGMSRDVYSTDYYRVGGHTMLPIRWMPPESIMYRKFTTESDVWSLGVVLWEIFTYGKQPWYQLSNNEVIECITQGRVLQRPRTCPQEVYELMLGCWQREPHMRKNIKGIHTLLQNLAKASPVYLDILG

[24] = target: PHKG1 (human) (UniProt Q16816)
Sequence of PHKG1 (human) (Q16816 whole entry, looked up): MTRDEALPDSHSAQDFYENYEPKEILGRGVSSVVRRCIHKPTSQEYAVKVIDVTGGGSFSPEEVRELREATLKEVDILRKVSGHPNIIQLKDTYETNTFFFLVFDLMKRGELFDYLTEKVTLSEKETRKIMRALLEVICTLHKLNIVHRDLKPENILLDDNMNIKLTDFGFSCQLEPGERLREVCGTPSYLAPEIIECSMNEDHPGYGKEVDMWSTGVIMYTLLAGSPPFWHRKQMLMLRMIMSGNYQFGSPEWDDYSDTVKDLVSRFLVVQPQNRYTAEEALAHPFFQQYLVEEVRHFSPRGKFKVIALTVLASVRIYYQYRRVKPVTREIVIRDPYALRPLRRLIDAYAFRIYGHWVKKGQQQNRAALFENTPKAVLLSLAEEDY

[25] = target: PIK3C2B (human) (UniProt O00750)
[26] = target: PIK3CD (human) (UniProt O00329)
[27] = target: PIM3 (human) (UniProt Q86V86)
[28] = target: PLK3 (human) (UniProt Q9H4B4)
[29] = target: PRKAA1 (human) (UniProt Q13131)
[30] = target: RIOK2 (human) (UniProt Q9BVS4)
[31] = target: SGK110 (human) (UniProt P0C264)
[32] = target: SLK (human) (UniProt Q9H2G2)
[33] = target: SRC (human) (UniProt P12931)
[34] = target: SRPK2 (human) (UniProt P78362)
[35] = target: STK11 (human) (UniProt Q15831)
[36] = target: STK17A (human) (UniProt Q9UEE5)
[37] = target: STK17B (human) (UniProt O94768)
[38] = target: STK4 (human) (UniProt Q13043)
[39] = target: TAOK3 (human) (UniProt Q9H2K8)
[40] = target: YES1 (human) (UniProt P07947)

Sequence of ABL2 (human) (P42684 whole entry, looked up): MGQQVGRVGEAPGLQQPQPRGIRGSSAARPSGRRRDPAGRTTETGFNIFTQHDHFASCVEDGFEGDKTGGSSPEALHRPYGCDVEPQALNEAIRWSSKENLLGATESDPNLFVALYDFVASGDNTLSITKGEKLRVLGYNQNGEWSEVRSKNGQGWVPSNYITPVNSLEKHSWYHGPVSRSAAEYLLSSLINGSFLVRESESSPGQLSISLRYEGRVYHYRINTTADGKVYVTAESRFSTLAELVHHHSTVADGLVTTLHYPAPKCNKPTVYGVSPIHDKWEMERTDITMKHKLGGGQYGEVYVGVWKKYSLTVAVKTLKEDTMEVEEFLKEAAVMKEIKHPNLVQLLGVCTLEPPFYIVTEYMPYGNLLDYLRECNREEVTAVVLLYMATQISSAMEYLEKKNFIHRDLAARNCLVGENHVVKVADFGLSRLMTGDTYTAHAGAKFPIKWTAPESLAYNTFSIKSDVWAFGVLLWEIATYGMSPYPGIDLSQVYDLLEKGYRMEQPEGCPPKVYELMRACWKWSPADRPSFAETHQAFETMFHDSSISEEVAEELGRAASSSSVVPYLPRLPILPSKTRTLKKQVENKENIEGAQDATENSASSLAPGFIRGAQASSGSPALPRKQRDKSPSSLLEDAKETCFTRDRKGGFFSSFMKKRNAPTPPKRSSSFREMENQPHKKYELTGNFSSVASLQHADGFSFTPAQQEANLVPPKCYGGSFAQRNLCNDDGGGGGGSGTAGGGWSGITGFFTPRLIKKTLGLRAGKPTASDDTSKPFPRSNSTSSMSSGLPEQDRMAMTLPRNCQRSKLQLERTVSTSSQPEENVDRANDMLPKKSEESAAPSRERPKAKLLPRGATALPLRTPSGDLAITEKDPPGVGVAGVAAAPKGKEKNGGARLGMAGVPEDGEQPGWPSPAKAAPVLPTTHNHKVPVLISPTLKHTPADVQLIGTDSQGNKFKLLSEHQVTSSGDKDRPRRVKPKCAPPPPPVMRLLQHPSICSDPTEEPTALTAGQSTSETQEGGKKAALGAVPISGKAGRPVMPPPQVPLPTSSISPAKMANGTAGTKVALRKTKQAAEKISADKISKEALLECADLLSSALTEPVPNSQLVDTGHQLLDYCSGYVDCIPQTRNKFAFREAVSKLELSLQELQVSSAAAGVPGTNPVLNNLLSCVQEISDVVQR

SMILES | kinase still bound, per cent of control [1] [%] | kinase still bound, per cent of control [2] [%] | kinase still bound, per cent of control [3] [%] | kinase still bound, per cent of control [4] [%] | kinase still bound, per cent of control [5] [%] | kinase still bound, per cent of control [6] [%] | kinase still bound, per cent of control [7] [%] | kinase still bound, per cent of control [8] [%] | kinase still bound, per cent of control [9] [%] | kinase still bound, per cent of control [10] [%] | kinase still bound, per cent of control [11] [%] | kinase still bound, per cent of control [12] [%] | kinase still bound, per cent of control [13] [%] | kinase still bound, per cent of control [14] [%] | kinase still bound, per cent of control [15] [%] | kinase still bound, per cent of control [16] [%] | kinase still bound, per cent of control [17] [%] | kinase still bound, per cent of control [18] [%] | kinase still bound, per cent of control [19] [%] | kinase still bound, per cent of control [20] [%] | other results
CC[C@@H]1C(=O)N(C)c2cnc(Nc3ccc(C(=O)NC4CCN(C)CC4)cc3OC)nc2N1C1CCCC1 | 100 | 100 | 100 | 100 | 100 | 100 | 5.4 | 100 | 100 | 100 | 100 | 100 | 100 | 100 | 100 | 100 | 100 | 100 | 100 | 100 | kinase still bound, per cent of control [21]: 100%; kinase still bound, per cent of control [22]: 100%; kinase still bound, per cent of control [23]: 100%; kinase still bound, per cent of control [24]: 100%; kinase still bound, per cent of control [25]: 100%; kinase still bound, per cent of control [26]: 100%; kinase still bound, per cent of control [27]: 100%; kinase still bound, per cent of control [28]: 0%; kinase still bound, per cent of control [29]: 100%; kinase still bound, per cent of control [30]: 100%; kinase still bound, per cent of control [31]: 100%; kinase still bound, per cent of control [32]: 3%; kinase still bound, per cent of control [33]: 100%; kinase still bound, per cent of control [34]: 100%; kinase still bound, per cent of control [35]: 100%; kinase still bound, per cent of control [36]: 100%; kinase still bound, per cent of control [37]: 100%; kinase still bound, per cent of control [38]: 100%; kinase still bound, per cent of control [39]: 100%; kinase still bound, per cent of control [40]: 100%
OCCCNc1cc(-c2ccnc(Nc3cccc(Cl)c3)n2)ccn1 | 100 | 100 | 100 | 100 | 1.9 | 100 | 100 | 100 | 100 | 100 | 100 | 100 | 100 | 100 | 100 | 100 | 100 | 100 | 100 | 100 | kinase still bound, per cent of control [21]: 100%; kinase still bound, per cent of control [22]: 100%; kinase still bound, per cent of control [23]: 100%; kinase still bound, per cent of control [24]: 100%; kinase still bound, per cent of control [25]: 100%; kinase still bound, per cent of control [26]: 100%; kinase still bound, per cent of control [27]: 100%; kinase still bound, per cent of control [28]: 100%; kinase still bound, per cent of control [29]: 100%; kinase still bound, per cent of control [30]: 100%; kinase still bound, per cent of control [31]: 100%; kinase still bound, per cent of control [32]: 100%; kinase still bound, per cent of control [33]: 100%; kinase still bound, per cent of control [34]: 100%; kinase still bound, per cent of control [35]: 100%; kinase still bound, per cent of control [36]: 100%; kinase still bound, per cent of control [37]: 100%; kinase still bound, per cent of control [38]: 100%; kinase still bound, per cent of control [39]: 100%; kinase still bound, per cent of control [40]: 100%
C=CC(=O)Nc1cc(NC(=O)c2ccc(C)c(NC(=O)c3ccno3)c2)cc(C(F)(F)F)c1 | 51 | 32 | 99 | 100 | 95 | 90 | 100 | 3.6 | 100 | 1.4 | 100 | 96 | 100 | 100 | 98 | 0.5 | 100 | 94 | 100 | 100 | kinase still bound, per cent of control [21]: 100%; kinase still bound, per cent of control [22]: 100%; kinase still bound, per cent of control [23]: 84%; kinase still bound, per cent of control [24]: 92%; kinase still bound, per cent of control [25]: 100%; kinase still bound, per cent of control [26]: 100%; kinase still bound, per cent of control [27]: 100%; kinase still bound, per cent of control [28]: 100%; kinase still bound, per cent of control [29]: 100%; kinase still bound, per cent of control [30]: 92%; kinase still bound, per cent of control [31]: 100%; kinase still bound, per cent of control [32]: 100%; kinase still bound, per cent of control [33]: 49%; kinase still bound, per cent of control [34]: 89%; kinase still bound, per cent of control [35]: 100%; kinase still bound, per cent of control [36]: 100%; kinase still bound, per cent of control [37]: 89%; kinase still bound, per cent of control [38]: 99%; kinase still bound, per cent of control [39]: 77%; kinase still bound, per cent of control [40]: 46%

— the kinase profiling compilation of Christmann-Franck et al. (2016)
